Test results reported in patent US20120245137A1 (Zalicus Pharmaceuticals Ltd., priority 2009, published 2012).

Key:
Type in all cases: cell-based
[1] = target: N-type calcium channel subunits (α1B, α2δ, and β3a) (Homo sapiens, UniProt Q00975); assay: Block of Cav2.2 channel, whole cell voltage clamp, manual and PatchXpress; details: Table 5; table follows Assay Example 3 (whole cell voltage clamp / PatchXpress); assay not given
How it was run: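 Percent block taken as current amplitude ratio with versus without compound, applied in rising doses; IC50 fitted where one cell received multiple doses. Protocol: 50 ms pulses to +20 mV at 0.067 Hz from […] or −90 mV holding; P/n leak subtraction, no junction-potential correction; manual and PatchXpress recordings.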

[2] = target: human α1G T-type channels (Homo sapiens, UniProt O43497); assay: T-type calcium channel block, whole cell patch clamp, α1G; details: HEK cells stably expressing human α1G; mainly non-inactivated protocol; values above 10,000 nM represented as 10000
How it was run: (§1)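 Whole-cell T-type currents, stably transfected HEK 293 (human α1G/α1H), passage 4-20. Cmpd in external soln, 0.1-0.01% DMSO, local gravity perfusion after ~10 min rest. Two voltage protocols: non-inactivating (resting block), inactivation (voltage-dependent block).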

[3] = target: human α1H T-type channels (Homo sapiens, UniProt O95180); assay: T-type calcium channel block, whole cell patch clamp, α1H; details: HEK cells stably expressing human α1H; mainly non-inactivated protocol; values above 10,000 nM represented as 10000
How it was run: as §1

human α1H T-type channels, sequence (O95180 whole entry): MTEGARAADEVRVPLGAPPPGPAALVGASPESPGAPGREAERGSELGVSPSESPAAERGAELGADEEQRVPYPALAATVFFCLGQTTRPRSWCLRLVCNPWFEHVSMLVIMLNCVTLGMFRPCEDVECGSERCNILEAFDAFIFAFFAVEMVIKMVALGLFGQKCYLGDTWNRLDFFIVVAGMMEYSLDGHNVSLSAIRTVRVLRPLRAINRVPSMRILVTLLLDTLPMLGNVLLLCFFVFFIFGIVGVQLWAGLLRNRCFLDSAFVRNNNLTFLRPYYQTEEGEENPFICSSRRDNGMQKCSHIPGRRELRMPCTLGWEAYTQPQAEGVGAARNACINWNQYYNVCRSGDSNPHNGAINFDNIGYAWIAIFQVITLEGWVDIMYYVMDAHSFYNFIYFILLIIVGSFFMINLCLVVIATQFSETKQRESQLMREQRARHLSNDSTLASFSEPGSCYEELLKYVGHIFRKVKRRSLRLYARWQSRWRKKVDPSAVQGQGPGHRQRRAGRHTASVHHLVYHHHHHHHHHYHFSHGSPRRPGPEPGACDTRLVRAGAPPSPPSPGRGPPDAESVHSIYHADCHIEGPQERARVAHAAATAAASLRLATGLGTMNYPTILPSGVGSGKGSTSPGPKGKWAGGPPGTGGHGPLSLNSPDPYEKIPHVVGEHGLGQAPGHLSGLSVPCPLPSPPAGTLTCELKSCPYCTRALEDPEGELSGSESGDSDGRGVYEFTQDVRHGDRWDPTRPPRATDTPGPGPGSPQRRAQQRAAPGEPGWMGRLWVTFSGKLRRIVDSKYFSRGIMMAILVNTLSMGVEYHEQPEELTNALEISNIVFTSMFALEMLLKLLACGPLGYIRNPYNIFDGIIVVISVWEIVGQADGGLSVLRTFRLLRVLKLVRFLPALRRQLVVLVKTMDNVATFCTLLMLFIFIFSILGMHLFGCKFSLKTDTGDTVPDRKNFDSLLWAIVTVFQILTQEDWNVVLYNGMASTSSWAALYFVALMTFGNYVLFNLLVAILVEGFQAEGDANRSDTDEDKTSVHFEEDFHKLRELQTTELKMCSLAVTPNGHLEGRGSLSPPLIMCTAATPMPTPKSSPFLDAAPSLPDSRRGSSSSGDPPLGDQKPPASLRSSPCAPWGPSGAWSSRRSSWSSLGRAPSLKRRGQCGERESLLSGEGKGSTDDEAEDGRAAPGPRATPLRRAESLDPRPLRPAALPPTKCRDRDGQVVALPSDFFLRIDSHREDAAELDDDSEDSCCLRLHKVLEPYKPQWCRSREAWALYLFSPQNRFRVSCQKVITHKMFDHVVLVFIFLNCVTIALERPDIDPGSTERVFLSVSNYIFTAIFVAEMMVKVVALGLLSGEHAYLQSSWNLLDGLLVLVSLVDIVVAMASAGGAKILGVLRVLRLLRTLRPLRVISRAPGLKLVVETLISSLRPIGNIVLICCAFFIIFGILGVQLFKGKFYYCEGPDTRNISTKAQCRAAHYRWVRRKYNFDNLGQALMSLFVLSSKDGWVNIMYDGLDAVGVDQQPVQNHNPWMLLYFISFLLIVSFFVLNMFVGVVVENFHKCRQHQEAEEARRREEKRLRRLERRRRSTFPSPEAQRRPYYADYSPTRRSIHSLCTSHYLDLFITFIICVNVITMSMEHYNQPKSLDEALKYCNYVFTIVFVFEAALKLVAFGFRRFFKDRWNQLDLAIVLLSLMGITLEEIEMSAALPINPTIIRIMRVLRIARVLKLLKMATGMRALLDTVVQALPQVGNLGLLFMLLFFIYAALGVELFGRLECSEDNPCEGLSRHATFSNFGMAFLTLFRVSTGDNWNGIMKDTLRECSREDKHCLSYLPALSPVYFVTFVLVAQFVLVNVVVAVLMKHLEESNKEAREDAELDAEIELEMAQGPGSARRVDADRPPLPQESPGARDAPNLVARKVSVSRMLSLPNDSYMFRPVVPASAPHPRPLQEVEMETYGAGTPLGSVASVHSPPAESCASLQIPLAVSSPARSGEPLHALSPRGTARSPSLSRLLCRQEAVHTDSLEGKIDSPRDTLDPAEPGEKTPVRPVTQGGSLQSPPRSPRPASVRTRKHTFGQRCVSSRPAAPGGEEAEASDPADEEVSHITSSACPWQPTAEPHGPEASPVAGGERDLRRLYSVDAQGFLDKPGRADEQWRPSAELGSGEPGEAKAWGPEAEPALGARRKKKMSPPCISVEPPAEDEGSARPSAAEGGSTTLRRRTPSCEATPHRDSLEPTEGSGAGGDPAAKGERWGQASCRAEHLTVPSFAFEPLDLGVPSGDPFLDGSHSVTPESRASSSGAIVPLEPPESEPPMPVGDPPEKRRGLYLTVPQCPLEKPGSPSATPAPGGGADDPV
human α1G T-type channels, sequence (O43497 whole entry, the tested form may be a part): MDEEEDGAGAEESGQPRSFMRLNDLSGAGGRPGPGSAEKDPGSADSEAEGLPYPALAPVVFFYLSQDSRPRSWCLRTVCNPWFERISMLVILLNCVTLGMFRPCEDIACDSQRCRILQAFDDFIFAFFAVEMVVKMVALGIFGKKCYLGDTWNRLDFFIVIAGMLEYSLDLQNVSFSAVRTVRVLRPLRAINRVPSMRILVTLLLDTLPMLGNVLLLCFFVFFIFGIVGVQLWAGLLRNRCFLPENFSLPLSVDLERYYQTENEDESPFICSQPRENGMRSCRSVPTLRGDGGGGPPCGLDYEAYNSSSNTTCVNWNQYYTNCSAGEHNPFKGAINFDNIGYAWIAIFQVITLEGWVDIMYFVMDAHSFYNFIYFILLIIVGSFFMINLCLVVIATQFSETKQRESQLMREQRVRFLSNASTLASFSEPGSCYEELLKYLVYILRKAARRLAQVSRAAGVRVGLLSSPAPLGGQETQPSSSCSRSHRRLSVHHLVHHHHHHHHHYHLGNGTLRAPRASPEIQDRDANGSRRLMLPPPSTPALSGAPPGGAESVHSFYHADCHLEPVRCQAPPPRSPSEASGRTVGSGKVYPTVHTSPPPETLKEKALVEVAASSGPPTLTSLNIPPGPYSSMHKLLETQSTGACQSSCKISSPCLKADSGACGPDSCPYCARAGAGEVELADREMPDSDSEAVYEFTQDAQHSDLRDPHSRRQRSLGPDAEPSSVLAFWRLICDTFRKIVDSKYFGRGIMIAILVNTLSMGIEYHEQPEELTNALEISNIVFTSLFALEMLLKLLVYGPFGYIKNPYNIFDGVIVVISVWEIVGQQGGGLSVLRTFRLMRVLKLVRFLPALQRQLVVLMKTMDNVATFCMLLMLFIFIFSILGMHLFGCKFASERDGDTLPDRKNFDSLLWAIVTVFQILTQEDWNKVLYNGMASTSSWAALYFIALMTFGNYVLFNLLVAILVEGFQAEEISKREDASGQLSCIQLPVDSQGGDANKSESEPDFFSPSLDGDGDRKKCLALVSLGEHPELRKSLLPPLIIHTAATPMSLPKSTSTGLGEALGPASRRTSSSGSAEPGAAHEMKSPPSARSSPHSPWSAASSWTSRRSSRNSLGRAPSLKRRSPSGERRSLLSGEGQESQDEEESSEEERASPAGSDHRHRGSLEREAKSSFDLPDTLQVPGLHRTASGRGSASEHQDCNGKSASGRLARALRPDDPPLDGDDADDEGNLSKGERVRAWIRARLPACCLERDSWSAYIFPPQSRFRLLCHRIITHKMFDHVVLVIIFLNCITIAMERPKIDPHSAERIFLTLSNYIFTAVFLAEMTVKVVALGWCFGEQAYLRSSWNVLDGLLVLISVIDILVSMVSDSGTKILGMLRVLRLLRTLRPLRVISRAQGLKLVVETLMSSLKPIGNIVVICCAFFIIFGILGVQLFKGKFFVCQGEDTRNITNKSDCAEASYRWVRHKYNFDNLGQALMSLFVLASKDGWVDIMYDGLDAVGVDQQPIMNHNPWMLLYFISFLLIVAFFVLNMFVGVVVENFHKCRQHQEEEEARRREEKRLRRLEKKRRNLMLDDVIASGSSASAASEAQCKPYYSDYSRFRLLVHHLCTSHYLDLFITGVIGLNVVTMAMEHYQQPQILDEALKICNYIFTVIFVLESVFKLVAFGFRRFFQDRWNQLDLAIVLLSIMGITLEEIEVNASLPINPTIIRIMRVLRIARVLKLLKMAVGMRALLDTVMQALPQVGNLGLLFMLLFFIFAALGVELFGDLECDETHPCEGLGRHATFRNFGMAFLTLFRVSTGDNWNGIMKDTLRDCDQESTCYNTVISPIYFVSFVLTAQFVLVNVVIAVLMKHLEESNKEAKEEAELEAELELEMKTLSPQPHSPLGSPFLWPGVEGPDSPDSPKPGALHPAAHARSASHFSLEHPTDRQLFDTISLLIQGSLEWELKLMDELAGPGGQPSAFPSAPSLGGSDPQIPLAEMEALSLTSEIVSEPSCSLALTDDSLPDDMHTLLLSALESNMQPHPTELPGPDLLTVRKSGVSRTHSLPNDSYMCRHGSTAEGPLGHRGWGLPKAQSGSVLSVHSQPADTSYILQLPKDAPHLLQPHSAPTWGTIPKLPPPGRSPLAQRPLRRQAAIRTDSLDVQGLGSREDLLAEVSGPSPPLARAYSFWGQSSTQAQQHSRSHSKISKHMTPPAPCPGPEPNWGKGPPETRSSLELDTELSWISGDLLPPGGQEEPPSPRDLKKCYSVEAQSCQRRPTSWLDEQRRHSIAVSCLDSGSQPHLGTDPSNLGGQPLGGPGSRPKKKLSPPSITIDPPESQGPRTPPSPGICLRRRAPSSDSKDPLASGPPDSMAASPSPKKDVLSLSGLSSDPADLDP

Row | Structure (SMILES) | IC50 [1] [nM] | IC50 [2] [nM] | IC50 [3] [nM]
1 | O=C1c2ccc(C(F)(F)F)nc2CN1[C@H]1CC[C@@](F)(S(=O)(=O)c2cccc(C(F)(F)F)c2)CC1 [Compound 290, 6-((1S,4S)-4-f1uoro-4-(3-(trifluoromethyl)phenylsulfonyl)cyclohexyl)-2-(trifluoromethyl)-6,dihydro-5Hpyrrolo[3,4-b]pyridin-5-one] | 420 | 1180 | 570
2 | CC(C)(C(=O)N[C@H]1CC[C@@](F)(S(=O)(=O)c2cccc(C(F)(F)F)c2)CC1)S(=O)(=O)c1cccc(C(F)(F)F)c1 [Compound 291, N-((1S,4S)-4-fluoro-4-(3-(trifluoromethyl)phenylsulfonyl)cyclohexyl)-2-methyl-2-(3-(trifluoromethyl)phenylsulfonyl)propanamide] | 50 | > 10000 | 6060
3 | Cc1nn(C)c(C)c1S(=O)(=O)N[C@H]1CC[C@@](F)(S(=O)(=O)c2cccc(C(F)(F)F)c2)CC1 [Compound 293, N-((1S,4S)-4-fluoro-4-(3-(trifluoromethyl)phenylsulfonyl)cyclohexyl)-1,3,5-trimethyl-1H-pyrazole-4-sulfonamide] | 1630 | 4770 | 1850
4 | O=S(=O)(CCC(F)(F)F)N[C@H]1CC[C@@](F)(S(=O)(=O)c2cccc(C(F)(F)F)c2)CC1 [Compound 295, 3,3,3-trifluoro-N-((1S,4S)-4-fluoro-4-(3-(trifluoromethyl)phenylsulfonyl)cyclohexyl) propane-1-sulfonamide] | 790 | 630 | 320
5 | Cn1cnc(S(=O)(=O)N[C@H]2CC[C@@](F)(S(=O)(=O)c3cccc(C(F)(F)F)c3)CC2)c1 [Compound 296, N-((1S,4S)-4-fluoro-4-(3-(trifluoromethyl)phenylsulfonyl)cyclohexyl)-1-methyl-1H-imidazole-4-sulfonamide] | 4230 | 2830 | 850
6 | O=S(=O)(N[C@H]1CC[C@@](F)(S(=O)(=O)c2cccc(C(F)(F)F)c2)CC1)c1ccc(C(F)(F)F)cc1Cl [Compound 297, 2-chloro-N-((1S,4S)-4-fluoro-4-(3-(trifluoromethyl)phenylsulfonyl)cyclohexyl)-4-(trifluoromethyl) benzenesulfonamide] | 720 | 850 | 300
7 | Cc1noc(C)c1S(=O)(=O)N[C@H]1CC[C@@](F)(S(=O)(=O)c2cccc(C(F)(F)F)c2)CC1 [Compound 298, N-((1S,4S)-4-fluoro-4-(3-(trifluoromethyl)phenylsulfonyl)cyclohexyl)-3,5-dimethylisoxazole-4-sulfonamide] | 850 | 880 | 240
8 | O=S(=O)(N[C@H]1CC[C@@](F)(S(=O)(=O)c2cccc(C(F)(F)F)c2)CC1)c1ccccc1C(F)(F)F [Compound 299, N-((1S,4S)-4-fluoro-4-(3-(trifluoromethyl)phenylsulfonyl)cyclohexyl)-2-(trifluoromethyl) benzenesulfonamide] | 730 | 640 | 210
9 | O=S(=O)(N[C@H]1CC[C@@](F)(S(=O)(=O)c2cccc(C(F)(F)F)c2)CC1)c1cccc(C(F)(F)F)c1 [Compound 300, N-((1S,4S)-4-fluoro-4-(3-(trifluoromethyl)phenylsulfonyl)cyclohexyl)-3-(trifluoromethyl) benzenesulfonamide] | 700 | 280 | 430
10 | O=S(=O)(N[C@H]1CC[C@@](F)(S(=O)(=O)c2cccc(C(F)(F)F)c2)CC1)c1ccc(OC(F)(F)F)cc1 [Compound 302, N-((1S,4S)-4-fluoro-4-(3-(trifluoromethyl)phenylsultonyl)cyclohexyl)-4-(trifluoromethoxy) benzenesulfonamide] | 400 | 970 | 850
11 | CC1(C(=O)N[C@H]2CC[C@@](F)(S(=O)(=O)c3cccc(C(F)(F)F)c3)CC2)CC1 [Compound 303, N-((1S,4S)-4-fluoro-4-(3-(tritluoromethyl)phenylsulfonyl)cyclohexyl)-1-methylcyclopropane carboxamide] | 180 | 4340 | 4150
12 | O=C(N[C@H]1CC[C@@](F)(S(=O)(=O)c2cccc(C(F)(F)F)c2)CC1)[C@H]1C[C@@H]1c1ccccc1 [Compound 304, (1S,2S)-N-((1S,4R)-4-fluoro-4-(3-(trifluoromethyl)phenylsulfonyl)cyclohexyl)-2-phenylcyclopropane carboxamide] | 230 | 1550 | 2440
13 | O=C(N[C@H]1CC[C@@](F)(S(=O)(=O)c2cccc(C(F)(F)F)c2)CC1)C1CCC(F)(F)CC1 [Compound 305, 4,4-difluoro-N-((1S,4S)-4-fluoro-4-(3-(trifluoromethyl)phenylsulfonyl)cyclohexyl) cyclohexanecarboxamide] | 300 | > 10000 | > 10000
14 | CC(C)(N)CN(C(=O)C(F)(F)F)[C@H]1CC[C@@](F)(S(=O)(=O)c2cccc(C(F)(F)F)c2)CC1 [Compound 306, N-(2-amino-2-methylpropyl)-2,2,2-trifluoro-N-((1S,4S)-4-tluoro-4-(3-(trifIuoromethyl)phenylsulfonyl)cyclohexyl) acetamide] | 530 | 4960 | 7350
15 | Cn1nc(C(F)(F)F)cc1C(=O)NC1(C)CCC(S(=O)(=O)c2cccc(C(F)(F)F)c2)CC1 (stereo not drawn) [Compound 307, 1-methyl-N-(1-methyl-4-(3-(trifluoromethyl)phenylsulfonyl)cyclohexyl)-3-(tritluoromethyl)-1H-pyrazole-5-carboxamide] | 3120 | 2410 | 1540
16 | CC1(NC(=O)c2cc(C(F)(F)F)ccn2)CCC(S(=O)(=O)c2cccc(C(F)(F)F)c2)CC1 (stereo not drawn) [Compound 308, N-(1-methyl-4-(3-(trifluoromethyl)phenylsulfonyl)cyclohexyl)-4-(trifluoromethyl)picolinamide] | 1450 | 4200 | 2270
17 | CC1(NC(=O)c2ccc(F)c(C(F)(F)F)c2)CCC(S(=O)(=O)c2cccc(C(F)(F)F)c2)CC1 (stereo not drawn) [Compound 309, 4-fluoro-N-(1-methyl-4-(3-(trifluoromethyl)phenylsulfonyl)cyclohexyl)-3-(trifluoromethyl)benzamide] | 1390 | 9900 | > 10000

Further lines, results first:

Row | IC50 [1] [nM] | IC50 [2] [nM] | IC50 [3] [nM] | Structure (SMILES)
18 | 1160 | 6340 | 5710 | CC1(NC(=O)c2ccc(F)c(Cl)c2)CCC(S(=O)(=O)c2cccc(C(F)(F)F)c2)CC1 (stereo not drawn) [Compound 310, 3-chloro-4-fluoro-N-(1-methyl-4-(3-(trifluoromethyl)phenylsulfonyl)cyclohexyl) benzamide]
19 | 650 | 5080 | 8500 | CC1(NC(=O)c2ccc(C(F)(F)F)cc2S(C)(=O)=O)CCC(S(=O)(=O)c2cccc(C(F)(F)F)c2)CC1 (stereo not drawn) [Compound 311, N-(1-methyl-4-(3-(trifluoromethyl)phenylsulfonyl)cyclohexyl)-2-(methylsulfonyl)-4-(trifluoromethyl)benzamide]
20 | 1020 | 2960 | 1940 | CC1(NC(=O)c2ccc(C(F)(F)F)cn2)CCC(S(=O)(=O)c2cccc(C(F)(F)F)c2)CC1 (stereo not drawn) [Compound 312, N-(1-methyl-4-(3-(trifluoromethyl)phenylsulfonyl)cyclohexyl)-5-(trifluoromethyl)picolinamide]
21 | 1980 | > 10000 | > 10000 | COc1cc(C(=O)NC2(C)CCC(S(=O)(=O)c3cccc(C(F)(F)F)c3)CC2)cc(Cl)n1 (stereo not drawn) [Compound 313, 2-chloro-6-methoxy-N-(1-methyl-4-(3-(trifluoromethyl)phenylsulfonyl)cyclohexyl) isonicotinamide]
22 | 3120 | 3990 | 2910 | CC1(NC(=O)c2ccc(C(F)(F)F)nc2S(C)(=O)=O)CCC(S(=O)(=O)c2cccc(C(F)(F)F)c2)CC1 (stereo not drawn) [Compound 316, N-(1-methyl-4-(3-(trifluoromethyl)phenylsulfonyl)cyclohexyl)-2-(methylsulfonyl)-6-(trifluoromethyl)nicotinamide]
23 | 2690 | 1140 | 860 | CC1(NC(=O)c2ncc(C(F)(F)F)cc2S(C)(=O)=O)CCC(S(=O)(=O)c2cccc(C(F)(F)F)c2)CC1 (stereo not drawn) [Compound 317, N-(1-methyl-4-(3-(trifluoromethyl)phenylsulfonyl)cyclohexyl)-3-(methylsulfonyl)-5-(trifluoromethyl)picolinamide]
24 | 260 | 4820 | 3430 | O=C(N[C@H]1CC[C@@H](S(=O)(=O)c2cc(F)cc(C(F)(F)F)c2)CC1)c1ccc(F)c(C(F)(F)F)c1 [Compound 319, 4-fluoro-N-((1S,4S)-4-(3-fluoro-5-(trifluoromethyl)phenylsulfonyl)cyclohexyl)-3-(trifluoromethyl)benzamide]
25 | 600 | 290 | 190 | O=C(N[C@H]1CC[C@@H](S(=O)(=O)c2cc(F)cc(C(F)(F)F)c2)CC1)c1ccc(F)c(Cl)c1 [Compound 320, 3-chloro-4-fluoro-N-((1S,4S)-4-(3-fluoro-5-(trifluoromethyl)phenylsulfonyl)cyclohexyl) benzamide]
